Experimental data published in US8962641B2, “Pyrimidine-substituted pyrrolidine derivatives, pharmaceutical compositions and uses thereof” (Boehringer Ingelheim International GmbH, priority 2013, dated 2015).

Molecular target: human ACC2 (Homo sapiens (Human), UniProt O00763)
Assay: ACC2 assay (spectrophotometric 384 well assay, NADH-linked kinetic method)
Type: biochemical
Settings: hACC2 construct lacking 128 N-terminal amino acids; coupled lactate dehydrogenase/pyruvate kinase reaction, 340 nm, 25° C.
Procedure: Spectrophotometric 384 Well Assay
Malonyl CoA formation by acetyl CoA carboxylases is stoichometrically linked to the consumption of ATP. ACC2 activity is measured in a NADH-linked kinetic method measuring ADP generated during the ACC reaction using a coupled lactate dehydrogenase/pyruvate kinase reaction.
The protein is then expressed in insect cells using a baculoviral expression system. Protein purification is performed by anion exchange.
All compounds are dissolved in dimethyl sulfoxide (DMSO) to a concentration of 10 mM.
The enzymatic reaction is then started by addition of a mixture of NADH, acetyl Coenzyme A (both 200 μM f.c.) and ATP (500 uM f.c.). The decrease of the optical density (slope S) is then determined at 25° C. at a wavelength of 340 nm over 15 minutes in a spectrophotometric reader.
Each assay microtiter plate contains wells with vehicle instead of compound as controls for the non-inhibited enzyme (100% CTL; ‘HIGH’) and wells without acetyl-CoA as controls for non-specific NADH degradation (0% CTL; ‘LOW’).

Chain of human ACC2 (O00763 129-2458): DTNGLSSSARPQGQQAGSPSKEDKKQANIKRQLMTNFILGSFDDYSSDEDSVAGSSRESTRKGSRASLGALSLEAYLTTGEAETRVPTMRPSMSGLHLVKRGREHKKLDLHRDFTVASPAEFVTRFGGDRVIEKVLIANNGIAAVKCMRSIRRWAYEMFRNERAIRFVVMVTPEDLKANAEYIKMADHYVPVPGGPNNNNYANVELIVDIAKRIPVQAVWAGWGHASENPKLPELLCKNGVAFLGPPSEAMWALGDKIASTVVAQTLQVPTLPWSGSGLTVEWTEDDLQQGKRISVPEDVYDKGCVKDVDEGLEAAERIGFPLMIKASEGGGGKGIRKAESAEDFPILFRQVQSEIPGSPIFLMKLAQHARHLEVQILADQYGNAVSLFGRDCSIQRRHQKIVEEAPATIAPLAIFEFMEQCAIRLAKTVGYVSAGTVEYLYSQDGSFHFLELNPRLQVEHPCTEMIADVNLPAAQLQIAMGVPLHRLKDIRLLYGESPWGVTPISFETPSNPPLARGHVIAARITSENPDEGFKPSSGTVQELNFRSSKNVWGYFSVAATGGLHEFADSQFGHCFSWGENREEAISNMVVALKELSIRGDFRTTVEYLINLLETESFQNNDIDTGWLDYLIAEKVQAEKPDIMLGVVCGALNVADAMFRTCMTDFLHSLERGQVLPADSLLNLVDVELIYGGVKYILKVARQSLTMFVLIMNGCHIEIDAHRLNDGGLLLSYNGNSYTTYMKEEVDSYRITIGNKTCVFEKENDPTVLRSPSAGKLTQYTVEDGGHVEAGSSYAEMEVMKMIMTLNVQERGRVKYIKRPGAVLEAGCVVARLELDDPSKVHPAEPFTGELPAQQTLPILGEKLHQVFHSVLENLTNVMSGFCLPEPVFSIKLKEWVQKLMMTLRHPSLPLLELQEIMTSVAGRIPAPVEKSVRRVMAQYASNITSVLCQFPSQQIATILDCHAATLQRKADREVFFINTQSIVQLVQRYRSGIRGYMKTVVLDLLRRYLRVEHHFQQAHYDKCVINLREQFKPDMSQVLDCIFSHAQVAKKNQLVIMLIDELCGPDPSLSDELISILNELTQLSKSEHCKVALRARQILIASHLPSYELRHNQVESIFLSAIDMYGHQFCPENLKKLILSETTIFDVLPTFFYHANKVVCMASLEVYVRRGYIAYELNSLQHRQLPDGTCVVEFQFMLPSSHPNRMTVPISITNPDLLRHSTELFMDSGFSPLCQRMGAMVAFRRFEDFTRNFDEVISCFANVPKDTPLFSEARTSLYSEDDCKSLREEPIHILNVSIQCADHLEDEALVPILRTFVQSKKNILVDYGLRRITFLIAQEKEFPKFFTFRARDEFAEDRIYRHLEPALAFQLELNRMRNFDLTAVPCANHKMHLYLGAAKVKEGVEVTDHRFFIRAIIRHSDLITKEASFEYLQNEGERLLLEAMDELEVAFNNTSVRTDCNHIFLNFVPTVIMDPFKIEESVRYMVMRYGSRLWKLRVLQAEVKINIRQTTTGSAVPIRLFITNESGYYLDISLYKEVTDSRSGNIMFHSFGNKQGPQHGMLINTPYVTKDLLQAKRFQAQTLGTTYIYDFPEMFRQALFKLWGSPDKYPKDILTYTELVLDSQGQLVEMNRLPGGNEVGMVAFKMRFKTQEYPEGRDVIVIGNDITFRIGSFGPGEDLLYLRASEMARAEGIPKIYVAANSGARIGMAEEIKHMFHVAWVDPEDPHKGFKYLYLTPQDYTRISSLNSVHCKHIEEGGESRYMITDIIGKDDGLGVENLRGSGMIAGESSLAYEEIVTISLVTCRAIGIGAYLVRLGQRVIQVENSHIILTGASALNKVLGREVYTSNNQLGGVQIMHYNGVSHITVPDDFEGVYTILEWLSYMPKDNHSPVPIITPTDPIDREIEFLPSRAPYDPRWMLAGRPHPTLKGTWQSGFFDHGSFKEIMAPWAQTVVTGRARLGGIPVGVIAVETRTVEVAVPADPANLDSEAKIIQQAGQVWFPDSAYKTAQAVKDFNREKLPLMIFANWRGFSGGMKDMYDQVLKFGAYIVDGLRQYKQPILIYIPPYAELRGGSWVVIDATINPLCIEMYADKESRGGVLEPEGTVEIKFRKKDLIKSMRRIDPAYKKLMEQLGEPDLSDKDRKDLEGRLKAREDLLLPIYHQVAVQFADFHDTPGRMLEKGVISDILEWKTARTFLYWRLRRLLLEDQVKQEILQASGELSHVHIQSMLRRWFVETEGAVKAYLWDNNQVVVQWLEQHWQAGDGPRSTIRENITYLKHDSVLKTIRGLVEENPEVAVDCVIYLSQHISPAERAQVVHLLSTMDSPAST

| SMILES | IC50 [µM] |
| --- | --- |
| COc1c(OCC2CC2)ncnc1N1CC[C@@H](Oc2ccc([C@H](C)NC(=O)c3cnco3)cc2)C1 [Example 2.27] | 0.103 |
| COc1c(OCC2CC2)ncnc1N1CC[C@@H](Oc2ccc([C@H](C)NC(=O)C3(C)CC3)cc2)C1 [Example 2.29] | 0.204 |
| COc1c(OCC2CC2)ncnc1N1CC[C@@H](Oc2ccc([C@H](C)NC(=O)C3CC(F)C3)cc2)C1 (some centres unmarked) [Example 2.30] | 0.528 |
| COc1c(OCC2CC2)ncnc1N1CC[C@@H](Oc2ccc([C@H](C)NC(=O)c3oc(NC(C)=O)nc3C)cc2)C1 [Example 2.32] | 0.809 |
| COc1c(OCC2CC2)ncnc1N1CC[C@@H](Oc2ccc([C@H](C)NC(=O)c3coc(NC(C)=O)n3)cc2)C1 [Example 2.33] | 0.908 |
| C[C@H](NC(=O)N(C)C)c1ccc(OC2CCN(c3ccnc(N(C)CC(F)F)n3)C2)cc1 (some centres unmarked) [Example 3.1] | 0.04 |
| C[C@H](NC(=O)N(C)C)c1ccc(OC2CCN(c3ccnc(N4CCOCC4)n3)C2)cc1 (some centres unmarked) [Example 3.2] | 0.227 |
| CCNC(=O)N[C@@H](C)c1ccc(OC2CCN(c3ccnc(N4CCOCC4)n3)C2)cc1 (some centres unmarked) [Example 3.3] | 0.445 |
| C[C@H](NC(=O)N1CCC1)c1ccc(OC2CCN(c3ccnc(N4CCOCC4)n3)C2)cc1 (some centres unmarked) [Example 3.4] | 1.04 |
| C[C@H](NC(=O)Nc1ccon1)c1ccc(OC2CCN(c3ccnc(N4CCOCC4)n3)C2)cc1 (some centres unmarked) [Example 3.5] | 0.299 |
| C[C@H](NC(=O)N1CCOCC1)c1ccc(OC2CCN(c3ccnc(N4CCOCC4)n3)C2)cc1 (some centres unmarked) [Example 3.6] | 0.605 |
| CCN(C)C(=O)N[C@@H](C)c1ccc(OC2CCN(c3ccnc(N4CCOCC4)n3)C2)cc1 (some centres unmarked) [Example 3.7] | 0.374 |
| CNC(=O)N[C@@H](C)c1ccc(OC2CCN(c3ccnc(N4CCOCC4)n3)C2)cc1 (some centres unmarked) [Example 3.8] | 0.26 |
| CCN(C)c1nccc(N2CCC(Oc3ccc([C@H](C)NC(=O)N(C)C)cc3)C2)n1 (some centres unmarked) [Example 3.9] | 0.117 |
| C[C@H](NC(=O)N(C)C)c1ccc(OC2CCN(c3ncnc(OCC4CC4)c3F)C2)cc1 (some centres unmarked) [Example 3.10] | 0.045 |
| CNC(=O)N[C@@H](C)c1ccc(OC2CCN(c3ncnc(OCC4CC4)c3F)C2)cc1 (some centres unmarked) [Example 3.11] | 0.11 |
| C[C@H](NC(=O)N1CCOCC1)c1ccc(OC2CCN(c3ncnc(OCC4CC4)c3F)C2)cc1 (some centres unmarked) [Example 3.12] | 0.203 |
| C[C@H](NC(=O)Nc1ccon1)c1ccc(OC2CCN(c3ncnc(OCC4CC4)c3F)C2)cc1 (some centres unmarked) [Example 3.13] | 0.05 |
| CCNC(=O)N[C@@H](C)c1ccc(OC2CCN(c3ncnc(OCC4CC4)c3F)C2)cc1 (some centres unmarked) [Example 3.14] | 0.12 |
| C[C@H](NC(=O)N(C)C)c1ccc(OC2CCN(c3ncnc(OCC(C)(C)O)c3F)C2)cc1 (some centres unmarked) [Example 3.15] | 0.278 |
| C[C@H](NC(=O)N(C)C)c1ccc(O[C@H]2CCN(c3nc(N4CCC5(CC5)C4)ncc3F)C2)cc1 [Example 3.16] | 0.104 |
| CCNC(=O)N[C@@H](C)c1ccc(O[C@@H]2CCN(c3nc(N4CCC5(CC5)C4)ncc3F)C2)cc1 [Example 3.17] | 0.242 |

| SMILES | IC50 [µM] |
| --- | --- |
| C[C@H](NC(=O)N(C)C)c1ccc(O[C@H]2CCN(c3nc(N4CCOCC4)ncc3F)C2)cc1 [Example 3.18] | 0.113 |
| C[C@H](NC(=O)N(C)C)c1ccc(O[C@@H]2CCN(c3ncnc(OCC(C)(F)F)c3F)C2)cc1 [Example 3.19] | 0.155 |
| CCNC(=O)N[C@@H](C)c1ccc(O[C@@H]2CCN(c3nc(N4CCOCC4)ncc3F)C2)cc1 [Example 3.20] | 0.576 |
| COC(=O)N[C@@H](C)c1ccc(O[C@@H]2CCN(c3ccnc(N(C)CC(F)F)n3)C2)cc1 [Example 4.1, Methyl (S)-1-(4-((R)-1-(2-((2,2-difluoroethyl)(methyl)amino)pyrimidin-4-yl)pyrrolidin-3-yloxy)phenyl)ethylcarbamate] | 0.065 |
| COC(=O)N[C@@H](C)c1ccc(OC2CCN(c3ccnc(N4CCOCC4)n3)C2)cc1 (some centres unmarked) [Example 4.2] | 0.244 |
| CCOC(=O)N[C@@H](C)c1ccc(OC2CCN(c3ccnc(N4CCOCC4)n3)C2)cc1 (some centres unmarked) [Example 4.3] | 0.494 |
| CCN(C)c1nccc(N2CCC(Oc3ccc([C@H](C)NC(=O)OC)cc3)C2)n1 (some centres unmarked) [Example 4.4] | 0.075 |
| COC(=O)N[C@@H](C)c1ccc(OC2CCN(c3ncnc(OCC4CC4)c3F)C2)cc1 (some centres unmarked) [Example 4.5] | 0.085 |
| COC(=O)N[C@@H](C)c1ccc(OC2CCN(c3ncnc(OCC(C)(C)O)c3F)C2)cc1 (some centres unmarked) [Example 4.6] | 0.222 |
| CCN(C)c1nccc(N2CC[C@@H](Oc3ccc([C@H](C)NC(=O)C(F)F)cc3)C2)n1 [Example 5.1, N—((S)-1-(4-((R)-1-(2-(ethyl(methyl)amino)pyrimidin-4-yl)pyrrolidin-3-yloxy)phenyl)ethyl)-2,2-difluoroacetamide] | 0.059 |
| C[C@H](NC(=O)C(F)F)c1ccc(OC2CCN(c3ccnc(N(C)CC(F)F)n3)C2)cc1 (some centres unmarked) [Example 5.2] | 0.049 |
| C[C@H](NC(=O)C(F)F)c1ccc(OC2CCN(c3ncnc(OCC4CC4)c3F)C2)cc1 (some centres unmarked) [Example 5.3] | 0.065 |
| CC(=O)N[C@@H](C)c1ccc(O[C@@H]2CCN(c3ncc(OCC4CCC4)cn3)C2)cc1 [Example 6.1, N—((S)-1-(4-((R)-1-(5-(cyclobutylmethoxy)pyrimidin-2-yl)pyrrolidin-3-yloxy)phenyl)ethyl)acetamide] | 0.11 |
| CC(=O)N[C@@H](C)c1ccc(O[C@@H]2CCN(c3ncc(C4CC4)cn3)C2)cc1 [Example 6.4] | 1.91 |
| CC(=O)N[C@@H](C)c1ccc(O[C@@H]2CCN(c3ncc(OC(C)C)cn3)C2)cc1 [Example 6.6] | 0.83 |
| CC(=O)N[C@@H](C)c1ccc(O[C@@H]2CCN(c3ncc(OCC4CC4)cn3)C2)cc1 [Example 6.7] | 1.08 |
| CC(=O)N[C@@H](C)c1ccc(O[C@@H]2CCN(c3ncc(OCC4CC4(F)F)cn3)C2)cc1 (some centres unmarked) [Example 6.8] | 0.163 |
| CC(=O)N[C@@H](C)c1ccc(O[C@@H]2CCN(c3ccnc(C(C)C)n3)C2)cc1 [Example 6.9] | 0.654 |
| CC(=O)N[C@@H](C)c1ccc(O[C@@H]2CCN(c3nccc(N4CCCC4)n3)C2)cc1 [Example 6.10] | 0.929 |
| CCN(C)c1ccnc(N2CC[C@@H](Oc3ccc([C@H](C)NC(C)=O)cc3)C2)n1 [Example 6.11] | 0.244 |
| CCN(C)c1nc(N2CC[C@@H](Oc3ccc([C@H](C)NC(C)=O)cc3)C2)ncc1F [Example 6.12] | 0.828 |
| CCN(CC)c1nc(N2CC[C@@H](Oc3ccc([C@H](C)NC(C)=O)cc3)C2)ncc1F [Example 6.13] | 0.51 |

| SMILES | IC50 [µM] |
| --- | --- |
| C[C@H](NC(=O)c1cncs1)c1ccc(O[C@@H]2CCN(c3nccc(N4CCOCC4)n3)C2)cc1 [Example 6.14] | 0.29 |
| C[C@H](NC(=O)c1cncs1)c1ccc(O[C@@H]2CCN(c3ncc(OCC4CC4(F)F)cn3)C2)cc1 (some centres unmarked) [Example 6.15] | 0.22 |
| C[C@H](NC(=O)c1cncs1)c1ccc(O[C@@H]2CCN(c3ccnc(C(F)(F)F)n3)C2)cc1 [Example 6.16] | 0.153 |
| CC(=O)N[C@@H](C)c1ccc(O[C@@H]2CCN(c3ncc(C4CCC4)cn3)C2)cc1 [Example 6.17] | 2.36 |
| CC(=O)N[C@@H](C)c1ccc(O[C@@H]2CCN(c3ncc(C4CCCC4)cn3)C2)cc1 [Example 6.18] | 0.935 |
| CC(=O)N[C@@H](C)c1ccc(O[C@@H]2CCN(c3ncc(OCCC4CC4)cn3)C2)cc1 [Example 6.19] | 0.449 |
| CC(=O)N[C@@H](C)c1ccc(O[C@@H]2CCN(c3ncc(OCC(C)C)cn3)C2)cc1 [Example 6.20] | 0.974 |
| CC(=O)N[C@@H](C)c1ccc(O[C@@H]2CCN(c3ccnc(C(F)(F)F)n3)C2)cc1 [Example 6.21] | 0.303 |
| CCCN(C)c1ccnc(N2CC[C@@H](Oc3ccc([C@H](C)NC(C)=O)cc3)C2)n1 [Example 6.22] | 1.35 |
| CC(=O)N[C@@H](C)c1ccc(O[C@@H]2CCN(c3nccc(C(F)(F)F)n3)C2)cc1 [Example 6.23] | 1.73 |
| CC(=O)N[C@@H](C)c1ccc(O[C@@H]2CCN(c3ncc(C(C)(C)C)cn3)C2)cc1 [Example 6.24] | 0.819 |
| CCCc1cnc(N2CC[C@@H](Oc3ccc([C@H](C)NC(C)=O)cc3)C2)nc1 [Example 6.25] | 0.714 |
| CC(=O)N[C@@H](C)c1ccc(O[C@@H]2CCN(c3ncc(OC[C@H]4CC4(F)F)cn3)C2)cc1 [Example 6.26] | 0.12 |
| CC(=O)N[C@@H](C)c1ccc(O[C@@H]2CCN(c3ncnc(OCC4CC4)c3F)C2)cc1 [Example 7.1, N—((S)-1-(4-((R)-1-(6-(cyclopropylmethoxy)-5-fluoropyrimidin-4-yl)pyrrolidin-3-yloxy)phenyl)ethyl)acetamide] | 0.035 |
| CCCOc1cc(N2CC[C@@H](Oc3ccc([C@H](C)NC(C)=O)cc3)C2)ncn1 [Example 7.2] | 0.649 |
| CC(=O)N[C@@H](C)c1ccc(O[C@@H]2CCN(c3cc(OCC4CC4)ncn3)C2)cc1 [Example 7.3] | 0.375 |
| CC(=O)N[C@@H](C)c1ccc(O[C@@H]2CCN(c3cc(OC4CCC4)ncn3)C2)cc1 [Example 7.4] | 0.373 |
| CC(=O)N[C@@H](C)c1ccc(O[C@@H]2CCN(c3cc(OCC4CC4(F)F)ncn3)C2)cc1 (some centres unmarked) [Example 7.5] | 0.842 |
| CC(=O)N[C@@H](C)c1ccc(O[C@@H]2CCN(c3ccnc(OCC4CC4)n3)C2)cc1 [Example 7.6] | 1.1 |
| CC(=O)N[C@@H](C)c1ccc(O[C@@H]2CCN(c3ccnc(OC4CCC4)n3)C2)cc1 [Example 7.7] | 0.884 |
| CCCOc1ccnc(N2CC[C@@H](Oc3ccc([C@H](C)NC(C)=O)cc3)C2)n1 [Example 7.8] | 2.09 |
